The values below come from US11345912B2, “Directed evolution of multivalent glycopeptides that tightly bind to target proteins” (Brandeis University, priority 2013, dated 2022).

In the test the test system is 2G12. Kind of test: Binding curve and KD determination of 2G12-glycopeptide interaction (radiolabeled glycopeptide, protein G magnetic bead capture, scintillation counting). The procedure: The resulting mRNAs were purified by denaturing PAGE or MEGAclear kit (Ambion), and 1 μM RNA was used in PURE system translation (reaction volume of translation varied). Typically, 25 μL of translated reaction was diluted with 100 μL of binding buffer (50 mM Tris-HCl, pH 7.8, 300 mM NaCl, 5 mM β-mercaptoethanol) and 25 μL of Ni-NTA agarose suspension (Qiagen), and tumbled at room temperature for 1 h. The resins were transferred to 0.22 μm spin-filter rinsing with 100 μL of bind buffer, and washed with 3×200 μL of bind buffer and 2×200 μL of wash buffer (50 mM Tris-HCl, pH 7.8, 5 mM β-mercaptoethanol). The bound peptides were eluted with 2×25 μL of 0.1% TFA. The eluted peptides were analyzed by MALDI-TOF MS, using α-Cyano-4-hydroxycinnamic acid matrix (Sigma), with or without desalting with ZipTip C18 resin (Millipore). For calibration of MALDI-TOF-MS, at least two of the following standards, bovine insulin, E. coli thioredoxin and/or horse apomyoglobin were used. To quantitate peptide yields, the radioactivities were measured by liquid scintillation counting. For the click reaction, the translated and purified peptides were mixed with 0.1% (v/v) Triton X-100, and then dialyzed against H2O containing 0.1% (v/v) Triton X-100 using Slide-A-Lyzer MINI Dialysis Devices, 3.5K MWCO (Thermo Scientific) overnight to desalt. After dialysis, the peptides were divided into two portions: one was glycosylated via the click reaction, while the other was saved as a non-glycosylated peptide control. […] The glycosylated peptide (<4 pmol) was incubated with 100 nM 2G12 in selection buffer (40 μL) at room temp. The solution was then tumbled 30 min with 0.12 mg of equilibrated Dynabeads Protein G to capture 2G12-glycopeptide complex. Beads were then washed with 3×40 μL of selection buffer and resuspended in 10 μL of selection buffer. The resuspended beads were heated at 70° C. for 30 min to denature 2G12 and elute glycopeptides, chilled on ice for 5 min, and tumbled at room temperature for 10 min. The magnetically isolated supernatant was recovered and the beads were rinsed with 10 μL of selection buffer.
Then, the solution was added to 0.12 mg of pre-equilibrated Dynabeads Protein G and tumbled at room temperature for 30 min. The supernatant was removed and the beads were washed with 3×40 μL of selection buffer. The radioactivities of the supernatant and wash solutions were measured by liquid scintillation counting as unbound fractions. […] The beads were resuspended in 40 μL of selection buffer, heated at 70° C. for 30 min to elute the bound glycopeptides, chilled on ice for 5 min, and tumbled at room temperature for 10 min. The supernatant was removed, and the beads were washed with 40 μL of selection buffer and resuspended in 40 μL of selection buffer. The radioactivities of these solutions and suspensions were measured by liquid scintillation counting separately and the values were combined as apparent bound fractions. […] All experiments were done at least in triplicate. KDs were calculated as described in the footnote of Table 4 (below).

Structures are written as SMILES. A value given as a limit tells only on which side of the number the result lay.

One may read the Kd as a measure of binding affinity in units of concentration. Consider `CC[C@H](C)[C@H](NC(=O)[C@H](CCCNC(=N)N)NC(=O)[C@H](CCCNC(=N)N)NC(=O)CNC(=O)[C@H](CC(=O)O)NC(=O)[C@H](CC(N)=O)NC(=O)[C@H](CC(C)C)NC(=O)[C@@H](NC(=O)[C@H](CCc1cn(C2CCC(OC3O[C@H](CO[C@H]4O[C@H](CO[C@H]5O[C@H](CO)[C@@H](O)[C@H](O)[C@@H]5O[C@H]5O[C@H](CO)[C@@H](O)[C@H](O)[C@@H]5O)[C@@H](O)[C@H](O[C@H]5O[C@H](CO)[C@@H](O)[C@H](O)[C@@H]5O[C@H]5O[C@H](CO)[C@@H](O)[C@H](O)[C@@H]5O)[C@@H]4O)[C@@H](O)[C@H](O[C@H]4O[C@H](CO)[C@@H](O)[C@H](O)[C@@H]4O[C@H]4O[C@H](CO)[C@@H](O)[C@H](O)[C@@H]4O[C@H]4O[C@H](CO)[C@@H](O)[C@H](O)[C@@H]4O)[C@@H]3O)CC2)nn1)NC=O)C(C)C)C(=O)N[C@H](C(=O)N[C@@H](CCC(N)=O)C(=O)N[C@@H](CCc1cn(C2CCC(OC3O[C@H](CO[C@H]4O[C@H](CO[C@H]5O[C@H](CO)[C@@H](O)[C@H](O)[C@@H]5O[C@H]5O[C@H](CO)[C@@H](O)[C@H](O)[C@@H]5O)[C@@H](O)[C@H](O[C@H]5O[C@H](CO)[C@@H](O)[C@H](O)[C@@H]5O[C@H]5O[C@H](CO)[C@@H](O)[C@H](O)[C@@H]5O)[C@@H]4O)[C@@H](O)[C@H](O[C@H]4O[C@H](CO)[C@@H](O)[C@H](O)[C@@H]4O[C@H]4O[C@H](CO)[C@@H](O)[C@H](O)[C@@H]4O[C@H]4O[C@H](CO)[C@@H](O)[C@H](O)[C@@H]4O)[C@@H]3O)CC2)nn1)C(=O)N[C@@H](CO)C(=O)N[C@@H](CS)C(=O)N[C@@H](CCC(=O)O)C(=O)N[C@@H](CC(C)C)C(=O)N1CCC[C@H]1C(=O)N[C@@H](CCc1cn(C2CCC(OC3O[C@H](CO[C@H]4O[C@H](CO[C@H]5O[C@H](CO)[C@@H](O)[C@H](O)[C@@H]5O[C@H]5O[C@H](CO)[C@@H](O)[C@H](O)[C@@H]5O)[C@@H](O)[C@H](O[C@H]5O[C@H](CO)[C@@H](O)[C@H](O)[C@@H]5O[C@H]5O[C@H](CO)[C@@H](O)[C@H](O)[C@@H]5O)[C@@H]4O)[C@@H](O)[C@H](O[C@H]4O[C@H](CO)[C@@H](O)[C@H](O)[C@@H]4O[C@H]4O[C@H](CO)[C@@H](O)[C@H](O)[C@@H]4O[C@H]4O[C@H](CO)[C@@H](O)[C@H](O)[C@@H]4O)[C@@H]3O)CC2)nn1)C(=O)N[C@H](C(=O)N[C@@H](CCCNC(=N)N)C(=O)N[C@@H](CCCNC(=N)N)C(=O)N[C@@H](CO)C(=O)NCC(=O)N[C@@H](CO)C(=O)NCC(=O)N[C@@H](CO)C(=O)N[C@@H](CC(C)C)C(=O)NCC(=O)N[C@@H](Cc1c[nH]cn1)C(=O)N[C@@H](Cc1c[nH]cn1)C(=O)N[C@@H](Cc1c[nH]cn1)C(=O)N[C@@H](Cc1c[nH]cn1)C(=O)N[C@@H](Cc1c[nH]cn1)C(=O)N[C@@H](Cc1c[nH]cn1)C(=O)N[C@@H](CCCNC(=N)N)C(=O)N[C@@H](CC(=O)O)C(=O)N[C@@H](Cc1ccc(O)cc1)C(=O)N[C@@H](CCCCN)C(=O)N[C@@H](CC(=O)O)C(=O)N[C@@H](CC(=O)O)C(=O)N[C@@H](CC(=O)O)C(=O)N[C@@H](CC(=O)O)C(=O)N[C@@H](CCCCN)C(=O)O)C(C)C)C(C)C` (stereo partly shown) [Clone 10F5-Δ11, XVLNDGRRIVQXSCELPXVRRS], for which the “Fmax [%]” value (Table 6 mutational analysis, radioactive bead binding assay) is 17%. Under “Table 6 mutational analysis, radioactive bead binding assay, ribosomally translated”, the Kd was more than 200 nM.

With `CC[C@H](C)[C@H](NC(=O)[C@H](CCCNC(=N)N)NC(=O)[C@@H]1CCCN1C(=O)[C@H](CC(=O)O)NC(=O)[C@H](CCC(=O)O)NC(=O)[C@@H](NC(=O)[C@H](C)NC(=O)[C@H](Cc1ccc(O)cc1)NC(=O)[C@H](CCC(N)=O)NC(=O)[C@H](CCc1cn(C2CCC(OC3O[C@H](CO[C@H]4O[C@H](CO[C@H]5O[C@H](CO)[C@@H](O)[C@H](O)[C@@H]5O[C@H]5O[C@H](CO)[C@@H](O)[C@H](O)[C@@H]5O)[C@@H](O)[C@H](O[C@H]5O[C@H](CO)[C@@H](O)[C@H](O)[C@@H]5O[C@H]5O[C@H](CO)[C@@H](O)[C@H](O)[C@@H]5O)[C@@H]4O)[C@@H](O)[C@H](O[C@H]4O[C@H](CO)[C@@H](O)[C@H](O)[C@@H]4O[C@H]4O[C@H](CO)[C@@H](O)[C@H](O)[C@@H]4O[C@H]4O[C@H](CO)[C@@H](O)[C@H](O)[C@@H]4O)[C@@H]3O)CC2)nn1)NC(=O)[C@H](CCCNC(=N)N)NC(=O)[C@H](Cc1ccc(O)cc1)NC(=O)[C@H](CCC(=O)O)NC(=O)[C@H](CC(C)C)NC(=O)[C@H](CO)NC(=O)[C@H](CC(N)=O)NC(=O)[C@H](CC(C)C)NC(=O)[C@@H](NC(=O)[C@H](CO)NC(=O)[C@H](CCCNC(=N)N)NC(=O)[C@H](CCc1cn(C2CCC(OC3O[C@H](CO[C@H]4O[C@H](CO[C@H]5O[C@H](CO)[C@@H](O)[C@H](O)[C@@H]5O[C@H]5O[C@H](CO)[C@@H](O)[C@H](O)[C@@H]5O)[C@@H](O)[C@H](O[C@H]5O[C@H](CO)[C@@H](O)[C@H](O)[C@@H]5O[C@H]5O[C@H](CO)[C@@H](O)[C@H](O)[C@@H]5O)[C@@H]4O)[C@@H](O)[C@H](O[C@H]4O[C@H](CO)[C@@H](O)[C@H](O)[C@@H]4O[C@H]4O[C@H](CO)[C@@H](O)[C@H](O)[C@@H]4O[C@H]4O[C@H](CO)[C@@H](O)[C@H](O)[C@@H]4O)[C@@H]3O)CC2)nn1)NC=O)[C@@H](C)O)[C@@H](C)O)C(=O)N[C@@H](CCCNC(=N)N)C(=O)N[C@@H](CCc1cn(C2CCC(OC3O[C@H](CO[C@H]4O[C@H](CO[C@H]5O[C@H](CO)[C@@H](O)[C@H](O)[C@@H]5O[C@H]5O[C@H](CO)[C@@H](O)[C@H](O)[C@@H]5O)[C@@H](O)[C@H](O[C@H]5O[C@H](CO)[C@@H](O)[C@H](O)[C@@H]5O[C@H]5O[C@H](CO)[C@@H](O)[C@H](O)[C@@H]5O)[C@@H]4O)[C@@H](O)[C@H](O[C@H]4O[C@H](CO)[C@@H](O)[C@H](O)[C@@H]4O[C@H]4O[C@H](CO)[C@@H](O)[C@H](O)[C@@H]4O[C@H]4O[C@H](CO)[C@@H](O)[C@H](O)[C@@H]4O)[C@@H]3O)CC2)nn1)C(=O)N[C@@H](C)C(=O)N[C@@H](CO)C(=O)N[C@H](C(=O)N1CCC[C@H]1C(=O)N[C@@H](Cc1ccc(O)cc1)C(=O)N[C@H](C(=O)N[C@@H](Cc1ccc(O)cc1)C(=O)N[C@@H](Cc1c[nH]c2ccccc12)C(=O)N[C@@H](Cc1c[nH]c2ccccc12)C(=O)N1CCC[C@H]1C(=O)NCC(=O)N[C@@H](CO)C(=O)NCC(=O)N[C@@H](CO)C(=O)N[C@@H](CC(C)C)C(=O)NCC(=O)N[C@@H](Cc1c[nH]cn1)C(=O)N[C@@H](Cc1c[nH]cn1)C(=O)N[C@@H](Cc1c[nH]cn1)C(=O)N[C@@H](Cc1c[nH]cn1)C(=O)N[C@@H](Cc1c[nH]cn1)C(=O)N[C@@H](Cc1c[nH]cn1)C(=O)N[C@@H](CCCNC(=N)N)C(=O)N[C@@H](CC(=O)O)C(=O)N[C@@H](Cc1ccc(O)cc1)C(=O)N[C@@H](CCCCN)C(=O)N[C@@H](CC(=O)O)C(=O)N[C@@H](CC(=O)O)C(=O)N[C@@H](CC(=O)O)C(=O)N[C@@H](CC(=O)O)C(=O)N[C@@H](CCCCN)C(=O)O)[C@@H](C)O)[C@@H](C)CC` (stereo partly shown) [Clone 10F9, XRSTLNSLEYRXQYATEDPRIRXASIPYTYWWP], the “Fmax [%]” value (Table 4, maximal fraction bound from curve fit, error = standard error of fit) is recorded as 86 ± 1.2%. The affinity (Table 4, ribosomally translated radiolabeled glycopeptide with His6/FLAG tag, room temperature, fit Fbound=(Fmax[2G12])/(KD+[2G12]), error = standard error of fit), expressed as Kd, was 3.1 ± 0.17 nM.
